From ChEMBL document CHEMBL5325445, “Discovery and development of small-molecule heparanase inhibitors” (Bioorg Med Chem, 2023)

Key:
[1] = Anti-angiogenic activity in human endothelial cells assessed as reduction in cell growth
Heparanase = target: T1, Heparanase (Homo sapiens, UniProt Q9Y251); experiment: Inhibition of heparanase (unknown origin)
T1 sequence (Q9Y251 whole entry): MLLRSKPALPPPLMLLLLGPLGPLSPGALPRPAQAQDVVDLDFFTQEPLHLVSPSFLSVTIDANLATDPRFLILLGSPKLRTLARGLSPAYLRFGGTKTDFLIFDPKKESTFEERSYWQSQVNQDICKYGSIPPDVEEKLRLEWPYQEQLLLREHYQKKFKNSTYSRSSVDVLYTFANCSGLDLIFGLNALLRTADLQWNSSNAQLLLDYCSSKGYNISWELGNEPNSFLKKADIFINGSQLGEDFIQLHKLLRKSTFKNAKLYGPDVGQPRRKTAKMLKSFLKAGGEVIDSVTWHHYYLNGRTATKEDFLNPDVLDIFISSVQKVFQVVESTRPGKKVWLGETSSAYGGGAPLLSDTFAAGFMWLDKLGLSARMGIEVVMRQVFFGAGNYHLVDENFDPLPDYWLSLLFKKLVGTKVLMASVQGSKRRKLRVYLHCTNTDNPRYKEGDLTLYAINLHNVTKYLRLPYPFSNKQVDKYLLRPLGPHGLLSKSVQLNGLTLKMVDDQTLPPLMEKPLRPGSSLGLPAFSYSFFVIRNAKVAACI

HT-1080 = experiment: Inhibition of cell invasion in human HT-1080 cells
U2OS = experiment: Anti-invasive activity against human U2OS cells assessed as cell invasion at 2.5 uM; assay type: functional
HepG2 = experiment: Antiproliferative activity against human HepG2 cells assessed as reduction in cell viability measured after 24 hrs by MTT assay; assay type: functional, cell-based; settings: HepG2, 24 h
[2] = Antiproliferative activity against mouse Lewis lung carcinoma cells assessed as reduction in cell viability measured after 24 hrs by MTT assay; assay type: functional, cell-based

Row | Compound | IC50 [1] | further results
1 | COc1ccc(N2C(=O)c3ccc(C(=O)O)cc3C2=O)cc1-c1nc2cc(-c3cc(F)cc(F)c3)ccc2o1 | < 10000 nM | –
2 | CCCNc1ccc(N2C(=O)c3ccc(C(=O)O)cc3C2=O)cc1-c1nc2cc(-c3ccc(Cl)cc3)ccc2o1 | 200 nM | –
3 | COc1cccc(-n2nc(C(=O)O)cc2-c2ccc(C3CCCCC3)c(Cl)c2)c1 | – | IC50 (Heparanase): 10000 nM
4 | CCCCCCCCCCCCCCCC(=O)C1=C(OCc2ccccc2)[C@@H](CO)OC1=O | – | IC50 (HT-1080): 1500 nM
5 | COc1ccc(-c2nc3cc(-c4ccc(F)cc4)ccc3o2)cc1N1C(=O)c2ccc(C(=O)O)cc2C1=O | < 10000 nM | –
6 | COc1ccc(N2C(=O)c3ccc(C(=O)O)cc3C2=O)cc1-c1nc2cc(-c3ccc4c(c3)OCO4)ccc2o1 | 750 nM | –
7 | COCCOc1ccc(-c2nc3cc(-c4ccccc4)ccc3o2)cc1N1C(=O)c2ccc(C(=O)O)cc2C1=O | 5000 nM | –
8 | O=C(Nc1ccc(-c2nc3ccccc3[nH]2)cc1)c1ccc(C(=O)Nc2ccc(-c3nc4ccccc4[nH]3)cc2)cc1 | – | inhibition at 2.5 µM (U2OS): 80%
9 | CCCNc1ccc(N2C(=O)c3ccc(C(=O)O)cc3C2=O)cc1-c1nc2cc(-c3ccc(OC(F)(F)F)cc3)ccc2o1 | 200 nM | –
10 | CCCNc1ccc(N2C(=O)c3ccc(C(=O)O)cc3C2=O)cc1-c1nc2cc(-c3ccc(C(F)(F)F)cc3)ccc2o1 | 200 nM | –
11 | CCCNc1ccc(N2C(=O)c3ccc(C(=O)O)cc3C2=O)cc1-c1nc2cc(-c3ccc(F)cc3)ccc2o1 | 200 nM | –
12 | CCCNc1ccc(N2C(=O)c3ccc(C(=O)O)cc3C2=O)cc1-c1nc2cc(-c3cccc(Cl)c3)ccc2o1 | 200 nM | –
13 | CCCNc1ccc(N2C(=O)c3ccc(C(=O)O)cc3C2=O)cc1-c1nc2cc(-c3ccc(F)c(Cl)c3)ccc2o1 | 200 nM | –
14 | Oc1c(I)cc(I)cc1-c1nn2c(-c3ccccc3)nnc2s1 | – | IC50 (HepG2): 11900 nM; IC50 [2]: 8300 nM
15 | Oc1ccc(I)cc1-c1nn2c(-c3ccccc3)nnc2s1 | – | IC50 (HepG2): 18400 nM; IC50 [2]: 16600 nM
16 | COc1ccc(-c2nc3cc(-c4cccc(-c5ccccc5)c4)ccc3o2)cc1N1C(=O)c2ccc(C(=O)O)cc2C1=O | 1000 nM | –
17 | O=C(Nn1c(-c2ccccc2)n[nH]c1=S)c1cc(I)cc(I)c1O | – | IC50 (HepG2): 14900 nM; IC50 [2]: 11800 nM
18 | O=C(O)c1ccc2c(c1)C(=O)N(c1cccc(-c3nc4cc(-c5cccc(-c6ccccc6)c5)ccc4o3)c1)C2=O | 1000 nM | –
19 | O=C(O)c1ccc2c(c1)C(=O)N(c1ccc(NC(=O)c3cccc(C(=O)Nc4ccc(N5C(=O)c6ccc(C(=O)O)cc6C5=O)cc4Cl)c3)c(Cl)c1)C2=O | – | inhibition at 2.5 µM (U2OS): 75%
